Our source for the IC50 values is US10023593B2, “ALK kinase inhibitor, and preparation method and uses thereof” (BEIJING PEARL BIOTECHNOLOGY LIMITED LIABILITY COMPANY, priority 2014, dated 2018).

One test concerns Karpas-299 cell line. Put plainly: CellTiter-Glo cell proliferation inhibition on Karpas-299 cell line. Particulars: Homo sapiens, 96 h, Karpas-299 cells, 5000 cells/well, 4 days drug treatment. It counts as cell-based. The method in brief:
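CellTiter-Glo luminescence measured after 4-day compound exposure (0.5% DMSO final) of Karpas-299 cells seeded at 5000/well in RPMI-1640 with 10% FBS, 37 °C, 5% CO2. IC50 derived from percent inhibition relative to vehicle wells.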
Background: In ATP-based viability assays light output follows the ATP content of the culture.

The next test addresses T1, Wild Type ALK kinase (Homo sapiens, UniProt Q9UM73).
T1 construct: purchased Sino-US Crown Bioscience, Inc. batch number ALK 20110607
The test is described as follows: HTRF KinEASE-TK assay, inhibitory activity on wild type ALK kinase. It counts as biochemical. Particulars: wild type ALK 1 ng/μl, substrate 1 μM, 30° C. 35 minutes, read-out: Inhibition on ALK kinases (wildtype), IC50. The method in brief: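 ALK kinase at 1 ng/μl and substrate at 1 μM were reacted with compound (1% DMSO) in buffer with 5 mM MgCl2 and 1 mM DTT for 35 min at 30 °C. HTRF detection used the 665/615 ratio, normalised to no-compound wells and to 10.4 μM LDK-378 wells. IC50 came from a concentration-response fit.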
On the technique in general: TR-FRET usually uses a lanthanide donor and a delayed reading to cut background.

T1 sequence (Q9UM73 19-1620): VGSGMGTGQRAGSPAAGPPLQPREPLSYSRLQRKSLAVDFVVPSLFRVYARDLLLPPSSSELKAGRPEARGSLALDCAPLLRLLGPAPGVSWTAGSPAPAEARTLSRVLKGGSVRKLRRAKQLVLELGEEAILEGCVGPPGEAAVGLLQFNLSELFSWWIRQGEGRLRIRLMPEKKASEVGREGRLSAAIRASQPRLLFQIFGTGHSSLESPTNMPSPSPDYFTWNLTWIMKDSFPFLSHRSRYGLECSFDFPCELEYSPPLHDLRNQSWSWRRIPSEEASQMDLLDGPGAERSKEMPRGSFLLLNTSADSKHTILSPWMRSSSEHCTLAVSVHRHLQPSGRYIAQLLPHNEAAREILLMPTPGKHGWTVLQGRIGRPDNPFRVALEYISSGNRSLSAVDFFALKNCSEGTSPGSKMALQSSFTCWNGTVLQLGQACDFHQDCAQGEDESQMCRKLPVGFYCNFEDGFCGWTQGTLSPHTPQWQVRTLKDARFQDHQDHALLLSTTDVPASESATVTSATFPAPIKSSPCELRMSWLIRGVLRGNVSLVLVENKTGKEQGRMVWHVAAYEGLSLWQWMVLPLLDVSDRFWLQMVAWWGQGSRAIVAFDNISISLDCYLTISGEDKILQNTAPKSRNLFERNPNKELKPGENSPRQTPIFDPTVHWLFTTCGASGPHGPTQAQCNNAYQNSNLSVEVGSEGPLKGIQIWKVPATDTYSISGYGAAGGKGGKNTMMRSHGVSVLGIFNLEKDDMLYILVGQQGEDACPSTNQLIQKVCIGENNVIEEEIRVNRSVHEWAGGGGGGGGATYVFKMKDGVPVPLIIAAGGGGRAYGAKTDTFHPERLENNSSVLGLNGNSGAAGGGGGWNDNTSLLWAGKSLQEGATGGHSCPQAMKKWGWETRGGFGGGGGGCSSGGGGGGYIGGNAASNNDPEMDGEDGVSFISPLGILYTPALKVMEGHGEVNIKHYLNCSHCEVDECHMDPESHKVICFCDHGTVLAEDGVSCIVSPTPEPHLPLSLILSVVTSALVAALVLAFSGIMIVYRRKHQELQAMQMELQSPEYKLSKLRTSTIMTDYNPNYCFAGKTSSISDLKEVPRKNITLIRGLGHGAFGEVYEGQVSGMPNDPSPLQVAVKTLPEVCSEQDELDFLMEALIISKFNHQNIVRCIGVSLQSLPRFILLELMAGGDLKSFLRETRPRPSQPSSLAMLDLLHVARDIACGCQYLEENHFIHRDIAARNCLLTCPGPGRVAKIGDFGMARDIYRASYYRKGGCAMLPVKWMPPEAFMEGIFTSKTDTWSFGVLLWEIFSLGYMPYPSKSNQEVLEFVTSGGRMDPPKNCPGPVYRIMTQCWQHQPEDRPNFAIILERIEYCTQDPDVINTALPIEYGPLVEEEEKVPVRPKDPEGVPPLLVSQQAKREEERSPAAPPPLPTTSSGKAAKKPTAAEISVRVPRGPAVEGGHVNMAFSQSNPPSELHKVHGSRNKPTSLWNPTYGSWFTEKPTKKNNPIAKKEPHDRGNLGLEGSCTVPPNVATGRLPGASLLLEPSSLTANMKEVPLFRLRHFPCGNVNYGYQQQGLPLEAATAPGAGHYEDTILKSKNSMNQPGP

One may read the IC50 as the midpoint of a concentration-inhibition curve. On to `Cc1cc(Nc2ncc(Cl)c(Nc3cn(C)nc3S(=O)(=O)CC(C)C)n2)c(OC2CC2)cc1C1CN(S(C)(=O)=O)C1` [Final product 171], for which the IC50 in the test with Karpas-299 cell line was 0.069 µM; on Wild Type ALK kinase, 0.086 µM.

For the molecule `CC(C)S(=O)(=O)c1nn(C)cc1Nc1nc(Nc2ccc(C3CCN(S(C)(=O)=O)C3)cc2OC2CC2)ncc1Cl` (centres unmarked) [Final product 172], the values for the concentration for half-maximal inhibition (IC50) in the test on Karpas-299 cell line and on Wild Type ALK kinase were 0.017 µM and 0.008 µM, respectively.

Turning to `CC(C)S(=O)(=O)c1nn(C2CC2)cc1Nc1nc(Nc2ccc(C3CCN(S(C)(=O)=O)CC3)cc2OC2CC2)ncc1Cl` [Final product 173], the IC50 is 0.019 µM in the test on Karpas-299 cell line and 0.037 µM at Wild Type ALK kinase.

Turning to `CCNC(=O)N1CCC(c2cc(OC3CC3)c(Nc3ncc(Cl)c(Nc4cn(C)nc4S(=O)(=O)C(C)C)n3)cc2C)CC1` [Final product 174, 4-(4-(5-chloro-4-(3-(isopropylsulfonyl)-1-methyl-1H-pyrazol-4-amine)pyrimidin-2-amine)-5-cyclopropoxy-2-methyl-phenyl)-N-ethyl-piperidin-1-carboxamide], the IC50 with Karpas-299 cell line was 0.02 µM; at Wild Type ALK kinase it was 0.004 µM.

For `CCN(CC)[C@H]1CC[C@H](c2cc(OC3CC3)c(Nc3ncc(Cl)c(Nc4cn(C)nc4S(=O)(=O)CC(C)C)n3)cc2C)CC1` [Final product 178], the concentration for half-maximal inhibition (IC50) in the test with Karpas-299 cell line and on Wild Type ALK kinase was 0.018 µM in each case.

Take `Cc1cc(Nc2ncc(Cl)c(Nc3cn(C)nc3S(=O)(=O)CC(C)C)n2)c(OC2CC2)cc1[C@H]1CC[C@H](NC2CC2)CC1` [Final product 180]: the IC50 with Karpas-299 cell line came to 0.026 µM; on Wild Type ALK kinase, 0.035 µM.

As to `Cc1cc(Nc2ncc(Cl)c(Nc3cn(C)nc3S(=O)(=O)CC(C)C)n2)c(OC2CC2)cc1[C@H]1CC[C@H](NC(C)C)CC1` [Final product 182], the IC50 in the test on Karpas-299 cell line is 0.015 µM; at Wild Type ALK kinase, 0.014 µM.

`Cc1cc(Nc2ncc(Cl)c(Nc3cn(C)nc3S(=O)(=O)C(C)C)n2)c(OC(C)C)cc1[C@H]1CC[C@H](NC(C)C)CC1` [Final product 188]: the concentration for half-maximal inhibition (IC50) in the test with Karpas-299 cell line came to 0.01 µM; on Wild Type ALK kinase it was 0.005 µM.

Turning to `Cc1cc(Nc2ncc(Cl)c(Nc3cn(C)nc3S(=O)(=O)C(C)C)n2)c(OC2CC2)cc1[C@H]1CC[C@@H](N(C)C)CC1` [Final product 189], the figures for the IC50 in the test with Karpas-299 cell line and on Wild Type ALK kinase were 0.006 µM and 0.004 µM, respectively.

As to `Cc1cc(Nc2ncc(Cl)c(Nc3cn(C)nc3S(=O)(=O)C(C)C)n2)c(OC2CC2)cc1[C@H]1CC[C@H](NC2CC2)CC1` [Final product 196], the IC50 in the test on Karpas-299 cell line and at Wild Type ALK kinase was 0.009 µM throughout.

In the case of `Cc1cc(Nc2ncc(Cl)c(Nc3cn(C)nc3S(=O)(=O)C(C)C)n2)c(OC2CC2)cc1[C@H]1CC[C@H](NC(C)C)CC1` [Final product 198], the IC50 in the test on Karpas-299 cell line and on Wild Type ALK kinase was 0.005 µM in each case.

On to `CC(=O)N1CCN([C@H]2CC[C@H](c3cc(OC4CC4)c(Nc4ncc(Cl)c(Nc5cn(C)nc5S(=O)(=O)C(C)C)n4)cc3C)CC2)CC1` [Final product 204], for which the IC50 with Karpas-299 cell line and at Wild Type ALK kinase was 0.007 µM each time.

On to `Cc1cc(Nc2ncc(Cl)c(Nc3cn(C)nc3S(=O)(=O)C(C)C)n2)c(OC2CC2)cc1C1=C(Cl)CN(C)CC1` [Final product 208, 5-chloro-N^2-[4-(5-chloro-1-methyl-1,2,3,6-tetrahydro-pyridin-4-yl)-2-cyclopropoxy-5-methyl-phenyl]-N^4-[1-methyl-3-(isopropylsulfonyl)-1H-pyrazol-4-yl]-pyrimidin-2,4-diamine], for which the concentration for half-maximal inhibition (IC50) was 0.035 µM in the test on Karpas-299 cell line and 0.006 µM at Wild Type ALK kinase.
